Measured values taken from paper PMC4589331, “Interactions of L-3,5,3'-Triiodothyronine, Allopregnanolone, and Ivermectin with the GABAA Receptor: Evidence for Overlapping Intersubunit Binding Modes” (PLoS ONE, 2015).

Tests used:
α1β1γ2 GABAA receptor = molecular target: T1, α1β1γ2 GABAA receptor (Homo sapiens, UniProt P14867+P18505+P18507); assay: Two-electrode voltage-clamp recording of GABAA receptors expressed in Xenopus oocytes; assay type: cell-based
T1 construct: GeneCopoeia (γ2 cDNA); host or cells: Xenopus laevis oocytes injected with cRNAs, ratio α1:β1:γ2 1:1:2
Description: The cDNAs encoding human GABAA receptor α1 and β1 subunits were acquired from American Type Culture Collection (ATCC, Manassas, Virginia), while those encoding γ2 subunits were acquired from GeneCopoeia (Rockville, Maryland). Restriction enzymes for the cDNAs came from New England Biolabs (Ipswich, MA).
HindIII-digested and XholI-digested DNA templates encoding human α1, β1, or γ2 GABAA receptor subunits (4 μg) were transcribed through the mMESSAGE mMACHINE T7 kit from Ambion (Austin, TX). […] The solution was then treated with RNase-free DNase I and precipitated with lithium chloride. The cRNAs were dissolved in double-distilled diethyl-pyrocarbonate (DEPC) treated water to a final concentration of ~ 1–2 μg/ μL. Subunit combinations were aliquoted for the specific receptor type with total concentration remaining ~ 1–2 μg/ μL.
(§1) X. laevis were anesthetized by placing them in solution of 1 g tricaine methanesulfonate (MS222) per 500 mL in de-chlorinated water. A small incision in the abdomen was made 1 cm away from and parallel to the midline and lobes of ovary were removed. The lobes were gently agitated at room temperature with collagenase (2 mg/mL) in calcium free OR-2 (82.5 mM NaCl, 2.5 mM KCl, 1 mM MgCl2, 5 mM HEPES, pH adjusted to 7.6 with NaOH) until the ovarian epithelium and the follicular cell layer were removed (~2 hrs). Oocytes were checked for proper size and shape, color, and for the presence of distinct animal and vegetal poles. Viable oocytes were placed in ND96 solution (96 mM NaCl, 2mM KCl, 1 mM MgCl2, 1 mM CaCl2, 5 mM HEPES, pH adjusted to 7.6 with NaOH) and the oocytes were injected with 46 nL cRNAs (1–2 μg/μL) expressing the α1β1γ2 construct using a digital microdispenser (Drummond ‘Nanoject II’), with the ratio α1: β1: γ2 1:1:2. […] Injected oocytes were incubated at 18°C in a sterile solution containing Leibovitz L-15 Medium supplemented with 10 mM HEPES, 50 mg/L gentamicin and 50 mg/L tetracycline at pH 7.4.
After 24 h following injections, oocytes were placed in a recording chamber perfused continuously with ND96. All drugs were perfused into the chamber through a gravity flow system (~5 mL/min). Oocytes were impaled with two 3 M KCl-filled glass microelectrodes (~ 1–2 MΩ). Oocytes were then voltage-clamped at -60 mV with a Model OC-725C Oocyte Clamp (Warner Instruments, Hamden, CT). Currents were recorded using the iWorx LabScribe v1.959 software. The peak amplitudes of the responses were used for data analysis.
Oocytes were perfused with ND96 between trials until current returned to baseline (approximately 10–15 minutes).
Graph Pad Prism, version 5.00 (La Jolla, CA), was used for all statistical analysis of two-electrode voltage-clamp data and for fitting the curves by nonlinear regression for determinations of EC50/IC50, min and max response values, and Hill coefficients. To determine the type of competition, a Schild plot analysis was applied to the competitive binding data, utilizing a linear regression fit.

uninjected oocytes = assay: Two-electrode voltage-clamp recording of uninjected oocytes; assay type: cell-based, Xenopus laevis; details: data not shown
Description: as §1
After 24 h following injections, oocytes were placed in a recording chamber perfused continuously with ND96. All drugs were perfused into the chamber through a gravity flow system (~5 mL/min). […] Currents were recorded using the iWorx LabScribe v1.959 software. […]

T1 sequence (P14867 28-456): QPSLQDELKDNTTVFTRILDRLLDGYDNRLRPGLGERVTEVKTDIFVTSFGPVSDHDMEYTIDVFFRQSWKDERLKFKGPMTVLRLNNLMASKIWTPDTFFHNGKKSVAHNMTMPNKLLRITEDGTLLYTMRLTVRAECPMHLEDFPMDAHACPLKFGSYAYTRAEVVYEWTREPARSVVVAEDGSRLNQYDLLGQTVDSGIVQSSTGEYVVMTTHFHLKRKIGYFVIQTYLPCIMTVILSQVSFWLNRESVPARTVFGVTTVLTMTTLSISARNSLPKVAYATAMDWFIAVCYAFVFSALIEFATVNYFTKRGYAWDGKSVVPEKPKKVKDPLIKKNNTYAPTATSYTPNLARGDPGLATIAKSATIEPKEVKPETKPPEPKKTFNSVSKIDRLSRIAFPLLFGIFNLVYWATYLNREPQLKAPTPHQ
T1 sequence (P18505 26-474): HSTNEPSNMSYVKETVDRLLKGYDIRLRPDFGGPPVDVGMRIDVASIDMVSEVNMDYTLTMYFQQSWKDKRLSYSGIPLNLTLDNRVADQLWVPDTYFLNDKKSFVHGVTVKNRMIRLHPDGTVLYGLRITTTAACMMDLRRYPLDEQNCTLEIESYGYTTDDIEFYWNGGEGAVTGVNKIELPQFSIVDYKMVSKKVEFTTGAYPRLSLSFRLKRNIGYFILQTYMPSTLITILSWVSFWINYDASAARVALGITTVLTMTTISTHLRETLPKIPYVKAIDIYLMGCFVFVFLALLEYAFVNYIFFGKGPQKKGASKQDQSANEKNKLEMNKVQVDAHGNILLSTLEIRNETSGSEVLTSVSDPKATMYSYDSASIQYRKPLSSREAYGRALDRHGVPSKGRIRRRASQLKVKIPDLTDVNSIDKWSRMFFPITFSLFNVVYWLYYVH
T1 sequence (P18507 40-475): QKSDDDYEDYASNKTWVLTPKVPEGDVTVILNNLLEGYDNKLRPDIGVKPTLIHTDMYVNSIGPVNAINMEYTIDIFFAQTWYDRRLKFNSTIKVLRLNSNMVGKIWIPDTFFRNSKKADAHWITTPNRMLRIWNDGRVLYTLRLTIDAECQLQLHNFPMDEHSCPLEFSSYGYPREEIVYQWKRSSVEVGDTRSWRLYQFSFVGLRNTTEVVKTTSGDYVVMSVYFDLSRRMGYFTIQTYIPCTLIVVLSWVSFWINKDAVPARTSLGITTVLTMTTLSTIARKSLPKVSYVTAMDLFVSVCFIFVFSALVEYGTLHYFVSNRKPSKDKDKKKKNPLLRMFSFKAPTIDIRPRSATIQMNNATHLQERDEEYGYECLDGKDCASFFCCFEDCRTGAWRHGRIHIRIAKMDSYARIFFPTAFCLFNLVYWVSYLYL

Structure (SMILES) | EC50 (α1β1γ2 GABAA receptor) [µM] | Hill coefficient of activation by IVM (α1β1γ2 GABAA receptor; absence of GABA) | concentration of apparent maximal effect of IVM (α1β1γ2 GABAA receptor; absence of GABA) [µM] | effect of IVM on uninjected oocytes (uninjected oocytes) | effect on GABA response (check of γ subunit incorporation) (α1β1γ2 GABAA receptor; oocytes injected with α1:β1:γ2 1:1:2)
CC(=O)[C@H]1CC[C@H]2[C@@H]3CC[C@H]4C[C@H](O)CC[C@]4(C)[C@H]3CC[C@]12C [ALLOP, 3α-hydroxy-5α-pregnan-20-one] | 0.9 ± 0.1 |  |  |  | 
CCC(C)C1OC2(CCC1C)CC1CC(CC=C(C)C(OC3CC(OC)C(OC4CC(OC)C(O)C(C)O4)C(C)O3)C(C)C=CC=C3COC4C(O)C(C)=CC(C(=O)O1)C34O)O2 (stereo not drawn) [IVM, ivermectin] | 7.1 ± 0.8 | 1.9 ± 0.4 | 20 to 50 | unaffected | 
CN1C(=O)CN=C(c2ccccc2)c2cc(Cl)ccc21 [diazepam] |  |  |  |  | potentiation
